Measurements: paper PMC2248166, “Quantitative peptide binding motifs for 19 human and mouse MHC class I molecules derived using positional scanning combinatorial peptide libraries” (Immunome Research, 2008)

Key:
HLA A*3001 = HLA A*3001 (Homo sapiens, UniProt P04439, D140H/D185E/E176W/F33S/G80R/H175R/K168Q/R138E/R41S); experiment: biochemical; type: binding
HLA A*3201 = HLA A*3201 (Homo sapiens, UniProt P04439, A270S/D101S/D185E/E176V/E277Q/F133L/G103R/G107R/G231S/H175R/I121M/I218V/I322F/K168Q/L105A/L300P/L318F/M331R/P208A/P217A/Q94H/R106L/R138Q/S129P/T104I/T323A/T345S/V100E/V321M/V358M); experiment: biochemical; type: binding
HLA A*6802 = HLA A*6802 (Homo sapiens, UniProt P04439, A269V/D140Y/D185E/E176V/E277Q/E87N/F33Y/G231S/I121R/I166T/I218V/L180W/L300P/L318F/N151K/P208A/P217A/Q86R/R138H/R169H/S129P/T345S/V36M); type: binding
HLA B*0702 = HLA B*0702 (Homo sapiens, UniProt P01889); type: binding; conditions: positional scanning combinatorial 9-mer library; normalized to 1.0 for the best residue at each position
HLA B*0801 = HLA B*0801 (Homo sapiens, UniProt P01889, A93T/A95T/D138N/E176V/E187T/K202T/Q94N/R180D/S35A/V36M/Y33D/Y91F); experiment: biochemical; type: binding
HLA B*1501 = HLA B*1501 (Homo sapiens, UniProt P01889, A329T/A93T/A95T/C349S/D201E/D98Y/E187L/E204Q/E69M/E70A/K202T/N87E/Q94N/R155S/R180W/S121R/S35A/S48A/V306I/V36M/Y140S/Y91S); experiment: biochemical; type: binding
HLA B*1503 = HLA B*1503 (Homo sapiens, UniProt P01889, A329T/A93T/A95T/C349S/D201E/D98Y/E187L/E204Q/K202T/N87E/Q94N/R155S/R180L/S121R/S35A/V306I/V36M/Y140S/Y91S); experiment: biochemical; type: binding
HLA B*2705 = HLA B*2705 (Homo sapiens, UniProt P01889, D138H/D201E/E176V/E204Q/G107R/H137Y/K202T/N104T/N87E/Q56L/Q94K/R106L/R155S/R180L/S101D/S121N/S48T/Y140D/Y33H/Y91C); type: binding; conditions: positional scanning combinatorial 9-mer library; normalized to 1.0 for the best residue at each position
HLA B*3501 = HLA B*3501 (Homo sapiens, UniProt P01889, A329T/A93T/A95T/C349S/D201E/D98Y/E176V/E187L/E204Q/E69T/I218V/K202T/L119I/Q94N/R155S/R180L/S121R/S35A/S48A/T118I/V127L/V306I/V36M/Y140S/Y91F); type: binding
HLA B*5101 = HLA B*5101 (Homo sapiens, UniProt P01889, A329T/A93T/A95T/C349S/D138N/D201E/D98Y/E187L/E204Q/E69T/G107R/I218V/K202T/L105A/L119W/N104I/Q94N/R106L/R155S/R180L/S101N/S121T/S35A/S48A/V306I/V36M/Y195H/Y91F); type: binding
HLA B*5301 = HLA B*5301 (Homo sapiens, UniProt P01889, A329T/A93T/A95T/C349S/D201E/D98Y/E176V/E187L/E204Q/E69T/G107R/I218V/K202T/L105A/L119I/N104I/Q94N/R106L/R155S/R180L/S101N/S121R/S35A/S48A/T118I/V127L/V306I/V36M/Y140S/Y91F); type: binding
HLA B*5401 = HLA B*5401 (Homo sapiens, UniProt P01889, A329T/C349S/D138N/D201E/E176V/E187T/E204Q/E69G/I76V/K202T/L119W/R155S/R180L/S121T/S35A/S48A/V127L/V306I/V36M/Y140L); type: binding
HLA B*5801 = HLA B*5801 (Homo sapiens, UniProt P01889, A329T/C349S/D201E/D98Y/E176V/E187L/E204Q/E69T/G107R/I218V/I90N/K202T/L105A/L119I/N104I/N87E/Q89R/Q94S/R106L/R155S/R180L/R86G/S101N/S121R/S35A/S48A/T118I/V127L/V306I/V36M/Y140S/Y91M); type: binding
HLA B*5802 = HLA B*5802 (Homo sapiens, UniProt P01889, A329T/C349S/D201E/D98Y/E176V/E187L/E204Q/E69T/G107R/I218V/I90N/K202T/L105A/N104I/N87E/Q89R/Q94S/R106L/R155S/R180L/R86G/S101N/S121W/S35A/S48A/V127L/V306I/V36M/Y140S/Y91M); type: binding
H-2 D^b = H-2 D^b (Mus musculus, UniProt P01899); type: binding
H-2 D^b, sequence (P01887 21-119): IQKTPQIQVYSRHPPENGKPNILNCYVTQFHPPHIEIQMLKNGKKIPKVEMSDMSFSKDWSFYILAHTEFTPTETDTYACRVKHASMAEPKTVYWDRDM
H-2 D^b, sequence (P01899 25-362): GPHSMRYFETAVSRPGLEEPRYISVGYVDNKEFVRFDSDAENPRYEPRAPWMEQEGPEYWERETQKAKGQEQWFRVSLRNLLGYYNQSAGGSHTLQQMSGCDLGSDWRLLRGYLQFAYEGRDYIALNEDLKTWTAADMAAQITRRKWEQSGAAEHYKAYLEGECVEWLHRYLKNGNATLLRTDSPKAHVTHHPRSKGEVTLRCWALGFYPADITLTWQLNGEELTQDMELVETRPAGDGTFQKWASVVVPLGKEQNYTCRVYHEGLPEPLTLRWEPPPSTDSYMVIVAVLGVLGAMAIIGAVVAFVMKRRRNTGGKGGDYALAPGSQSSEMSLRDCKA

H-2 D^d = H-2 D^d (Mus musculus, UniProt P01900); type: binding
H-2 D^d, sequence (P01900 whole entry, looked up): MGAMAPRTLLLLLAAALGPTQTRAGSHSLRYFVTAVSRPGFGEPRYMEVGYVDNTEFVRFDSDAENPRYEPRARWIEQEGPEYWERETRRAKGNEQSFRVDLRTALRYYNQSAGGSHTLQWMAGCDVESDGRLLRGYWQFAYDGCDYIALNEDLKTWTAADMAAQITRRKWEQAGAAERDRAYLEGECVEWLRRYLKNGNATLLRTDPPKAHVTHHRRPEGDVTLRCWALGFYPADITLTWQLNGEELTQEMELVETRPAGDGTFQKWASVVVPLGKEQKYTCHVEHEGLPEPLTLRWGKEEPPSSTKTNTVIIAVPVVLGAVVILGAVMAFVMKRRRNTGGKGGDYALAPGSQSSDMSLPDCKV

H-2 K^k = H-2 K^k (Mus musculus, UniProt P04223); type: binding
H-2 K^k, sequence (P01887 21-119): as the sequence (P01887 21-119) above
H-2 K^k, sequence (P04223 22-369): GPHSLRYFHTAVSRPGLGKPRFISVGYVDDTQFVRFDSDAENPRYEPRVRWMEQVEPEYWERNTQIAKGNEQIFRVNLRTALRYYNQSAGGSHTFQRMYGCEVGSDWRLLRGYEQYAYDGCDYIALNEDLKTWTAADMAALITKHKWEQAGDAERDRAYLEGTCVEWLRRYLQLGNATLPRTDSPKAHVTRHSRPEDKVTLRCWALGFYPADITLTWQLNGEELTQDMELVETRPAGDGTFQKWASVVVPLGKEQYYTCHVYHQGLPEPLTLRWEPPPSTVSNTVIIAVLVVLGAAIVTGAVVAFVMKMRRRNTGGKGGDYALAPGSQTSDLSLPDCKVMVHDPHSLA

HLA A*0201 = HLA A*0201 (Homo sapiens, UniProt P04439, D140Y/D185E/D98H/E176V/E277Q/G131W/G231S/I119V/I121R/I166T/I218V/L300P/L318F/N151K/N90K/P208A/P217A/Q86G/Q94H/R138H/R169H/T345S); conditions: positional scanning combinatorial 9-mer library; normalized to 1.0 for the best residue at each position

Sequence	Normalized average relative binding affinity (ARB), HLA A*3001 (HLA A*3001)	Normalized average relative binding affinity (ARB), HLA A*3201 (HLA A*3201)	Normalized average relative binding affinity (ARB), HLA A*6802 (HLA A*6802)	Normalized average relative binding affinity (ARB), HLA B*0702 (HLA B*0702)	Normalized average relative binding affinity (ARB), HLA B*0801 (HLA B*0801)	Normalized average relative binding affinity (ARB), HLA B*1501 (HLA B*1501)	Normalized average relative binding affinity (ARB), HLA B*1503 (HLA B*1503)	Normalized average relative binding affinity (ARB), HLA B*2705 (HLA B*2705)	Normalized average relative binding affinity (ARB), HLA B*3501 (HLA B*3501)	Normalized average relative binding affinity (ARB), HLA B*5101 (HLA B*5101)	Normalized average relative binding affinity (ARB), HLA B*5301 (HLA B*5301)	Normalized average relative binding affinity (ARB), HLA B*5401 (HLA B*5401)	Normalized average relative binding affinity (ARB), HLA B*5801 (HLA B*5801)	Normalized average relative binding affinity (ARB), HLA B*5802 (HLA B*5802)	Normalized average relative binding affinity (ARB), H-2 Db (H-2 D^b)	Normalized average relative binding affinity (ARB), H-2 Dd (H-2 D^d)	Normalized average relative binding affinity (ARB), H-2 Kk (H-2 K^k)	Normalized average relative binding affinity (ARB), HLA A*0201 (HLA A*0201)
TXXXXXXXX [3064.0017]	0.050	0.11	0.29	0.12	0.076	0.13	0.14	0.12	0.14	0.089	0.027	0.026	0.12	0.062	0.096	0.25	0.65	0.094
VXXXXXXXX [3064.0018]	0.074	0.28	0.038	0.14	0.047	0.14	0.22	0.16	0.11	0.17	0.018	0.032	0.74	0.21	0.094	0.80	0.13	0.062
WXXXXXXXX [3064.0019]	0.020	0.059	0.19	0.25	0.20	0.44	0.27	0.41	0.23	0.11	0.17	0.14	0.29	0.11	0.16	1.0	0.80	0.057
XAXXXXXXX [3064.0021]	0.89	0.11	0.12	0.086	0.41	0.57	0.13	0.0054	0.88	0.54	0.44	1.0	0.48	0.035	0.64	0.025	0.047	0.0018
XCXXXXXXX [3064.0022]	0.15	0.028	0.0076	0.0028	0.028	0.027	0.0028	0.0016	0.067	0.079	0.019	0.0051	0.013	0.051	0.22	0.013	0.010	0.0016
XDXXXXXXX [3064.0023]	0.012	0.025	0.0075	0.0029	0.014	0.0094	0.0054	0.0016	0.018	0.022	0.0088	0.0009	0.0033	0.030	0.036	0.013	0.13	0.0016
